In patent US8518884B2, “Methods for treating atrial or ventricular arrhythmias by administering a G-protein alpha inhibitor” (Northwestern University, priority 2008, dated 2013):
Entries after “also recorded” stand apart in the source; their conditions may differ. Ends that are not written are not given here.

Legend:
[1] = tested on: M2R-stimulated Gi activation; test: Cholinergic (CCh) modulation of Ca2+ transients in isolated canine left atrial myocytes; format: cell-based
Source text: (§1) Cardiac myocytes were isolated from the canine left atrium, loaded with fluo-4 (fluorescent Ca^2+ indicator), and electrically field-stimulated. […] The effects can be summarized quantitatively (SEE FIG. 12B).

[2] = tested on: βAR-stimulated Gs activation; test: β-adrenergic (ISO) modulation of Ca2+ transients in isolated canine left atrial myocytes; format: cell-based; conditions: 1 μM ISO (βAR saturating); within 20-30 seconds
Source text: as §1

left atrium = test: Functional studies in pacing-induced CHF and control canine subjects: left atrial ERPs under autonomic manipulation; format: in vivo; conditions: both groups (CHF and control)
Protocol: Canine subjects were divided into three groups. In group 1, CHF was induced by rapid ventricular pacing for 4 weeks (i.e. when the animals began to develop clinical heart failure. In group 2, pacing was performed for only 3 weeks. Group three were control canine subjects not subjected to rapid ventricular pacing. At the end of follow up period, high-density epicardial mapping was performed in the PVs, the PLA and the LAA. ERPs were obtained at multiple sites under the following conditions: a) baseline (BSL), b) left cervical vagal stimulation at 20 Hz (VS), c) beta-stimulation with isoproterenol (ISO), d) beta-blockade with propranolol (PROP) and e) beta-blockade+vagal stimulation (P+VS). VS caused significant mean ERP shortening in all three groups. […] PROP increased the VS effect on ERP in normal controls, but produced an attenuation of this effect in the CHF group (SEE FIG. 37). In this CHF model, after 4 weeks of pacing, an increased vagal effect on atrial refractoriness, an increased cumulative sympathetic effect, and a change in the sympatho-vagal interactions of the left atrium were observed. After 3 weeks of pacing, there is pronounced autonomic remodeling, with evidence of P as well S nerve upregulation in the PVs and left atrium. Both P and S upregulation are more pronounced in the PLA (and to a lesser extent in the PVs) than in the rest of the left atrium. While vagal responsiveness in the left atrium is unaltered at 3 weeks of pacing, it increases after 4 weeks of pacing. […] The autonomic remodeling becomes more pronounced with increasing duration of pacing. […] The increase in β1 binding is consistent with the increase in sympathetic innervation. […] The P upregulation noted in the left atrium in CHF is a compensatory response to S upregulation that occurs in response to CHF. […] However, since normal atria are more densely innervated with vagal fibers (than the ventricle) and also contain a significant amount of IKAch, the compensatory response is likely to be more vigorous in the atrium. The compensatory increase in vagal innervations, and resulting increase in IKAch, may contribute to increased AF substrate.

[3] = tested on: posterior left atrium (PLA); test: Topical tropicaimide on the PLA: vagal stimulation (VS)-induced ERP shortening and AF inducibility; format: in vivo, canine
Protocol: P nerve fibers, and related muscarinic receptors, are preferentially located in the PLA and selective cholinergic blockade in the PLA can be successfully performed to alter vagal AF substrate. PLA, PVs and left atrial appendage (LAA) in canine subjects were immunostained for S nerves (dopamine beta-hydroxylase), P nerves (acetylcholine esterase), and M2 receptors. Epicardial electrophysiologic mapping was performed in 7 additional canine subjects. The PLA was the most richly innervated with nerve bundles containing P and S fibers (PV=0.9±1, PLA=3.2±2.5, LAA=0.17±0.3/cm^2; p<0.001); nerve bundles were located in fibrofatty tissue as well as in surrounding myocardium. P predominated over S fibers within bundles (P/S: PV=4.4, PLA=7.2, LAA=5.8). M2 distribution was also most pronounced in the PLA (M2 stained cells/cm^2: PLA=17.8±8.3, PV=14.3±7.3, LAA=14.5±8, p=0.012). A particularly high concentration of P fibers was found in the ligament of Marshall (in the PLA). The ligament of Marshall could be traced back to a major branch of the left cervical vagus nerve. The nerve in turn innervates the PVs and the rest of the PLA. The PLA surface is stained for acetylcholinesterase. […] A small nerve branch (N) originating in the LOM is seen to innervate the LSPV. […] Cholinergic nerves from the PLA fat pad (PFP) can be seen to innervate the LIPV. […] 1% tropicaimide was then applied topically to the PLA.
Using the canine model outlined below, 1% tropicaimide (a cholinergic blocker) was applied topically to the epicardial aspect of the PLA in canine subjects. Effective refractory periods were measured at multiple sites in the PLA a) at baseline, b) after left vagal stimulation, c) after tropicaimide application to the PLA and d) in the presence of vagal stimulation after tropicaimide application. […] The robust autonomic profile of the PLA and its role in AF (both in normal as well as diseased hearts), thereby making it an attractive target for autonomic manipulation by regional delivery of Gα C-terminal peptides. […]

Gαo1 = Gαo1 minigene in the PLA: vagal and CCh induced ERP shortening; format: in vivo, dog; conditions: 10 mg minigene in PLA; day 3; compared to GαR dogs
Protocol: This Example describes the use of a Gαo1 inhibitor to treat arrhythmia is a subject. In one animal, the following was performed: • Day 1: Open-chest mapping was performed via a left lateral thoracotomy. 10 mg of minigene expressing Gαo1 peptide was then injected in the PLA, followed by electroporation. • Day 3: A left lateral thoracotomy was performed again. The left vagus nerve was isolated. ERPs were measured in the PLA, PV and LAA in the absence and presence of vagal stimulation. Data from the above animal was compared with other dogs that received other minigenes (i.e. Gαi2, Gαi2+Gαo1 and GαR (see Aistrup et al, Heart Rhythm 2011)

Gαi = test: cp-Gα peptide delivery to the PLA with electroporation/sonoporation: ERPs and AF inducibility with vagal stimulation; format: in vivo, canine
Protocol: High-density epicardial mapping was performed in the PVs (2×2 electrodes), the PLA (7×3 electrodes) and the left atrial appendage (LAA) (7×3 electrodes) of canine subjects. Effective refractory periods (ERPs) were obtained at baseline and in response left cervical vagal stimulation (VS) (20 Hz). Cp-Gαi2 peptide (200-330 nM) was then applied topically to the epicardial aspect of the PLA in a canine subgroup. Cp-Gαi3 peptide (200-330 nM) was then applied topically to the epicardial aspect of the PLA of a second subgroup. Electroporation was performed after the application of peptide to enhance intracellular delivery of the peptide. ERPs were then re-measured in the presence and absence of VS.
In canine subjects, high-density epicardial mapping was performed in the PVs (2×2 electrodes), the PLA (7×3 electrodes) and the left atrial appendage (LAA) (7×3 electrodes). Effective refractory periods (ERPs) were obtained at baseline and in response left cervical vagal stimulation (VS) (20 Hz). FLAG-tcp-Gα peptides (200 nM-3 μM of cp-Gαi1/2 (N=8 canine subjects), cp-Gαi3 (N=4 canine subjects), or random-sequence cp-GαoR peptide (N=3 canine subjects) were injected into the PLA epicardium of the canine subjects followed by either sonoporation or electroporation. In a subgroup of the canine subjects, sonoporation or electroporation alone was performed without introduction of cp-Gαi peptide. ERPs were then re-measured in the presence and absence of VS. In a separate set of control animals, ERPs were measured before and after the administration of systemic autonomic blockade with propranolol (0.2 mg/kg)+atropine (0.04 mg/kg).

[4] = tested on: canine subject atrial cardiomyocytes; test: Toxicity by rapid automated tetrazolium dye based assay (MTT); format: cell-based; conditions: 5 μM peptide
[5] = 200 nM-3 μM injected into PLA + sono/electroporation
[6] = during VS, after peptide delivery into PLA

## C[N+](C)(C)CCOC(N)=O [CCh, carbachol, reference compound]
[1]; 10 μM CCh (M2R saturating), field-stimulated myocytes
  effect on cellular Ca2+ transients: nearly eliminated

## CC(C)NCC(O)c1ccc(O)c(O)c1 (stereo not shown) [ISO, isoproterenol]
[2]
  effect on Ca2+ transients: appreciably augmented
Left atrium
  effect on mean ERP compared to PROP: significantly shortened

## CCN(Cc1ccncc1)C(=O)C(CO)c1ccccc1 (stereo not shown) [tropicaimide]
[3]; 1% tropicaimide topically to PLA, PLA, PV and LAA
  VS-induced ERP shortening: significantly attenuated; also recorded: either entirely eliminated or at least significantly attenuated
[3]; 1% tropicaimide topically to PLA, vagal stimulation
  decrease in AF inducibility: 92%
[3]; after 1% tropicaimide to PLA, presence or absence of vagal stimulation
  AF induction with extrastimulus testing: could not induced

## IANNLRGCGLY [Gαo1 minigene]
Gαo1
  CCh induced ERP shortening: significant reduction
  vagal induced ERP shortening: significant reduction

## cp-Gαi2: chimeric peptide: cell-penetrating poly-arginine N-terminal sequence and C-terminal last 11 residues of Gαi (IKNNLKDCGLF; also: cell-penetrating poly-arginine N-terminal sequence, length not given here)
[1]; 0.1-3 μM peptide superfusion 10-20 min, CCh
  attenuation of CCh effect on Ca2+ transients: significantly attenuate
Gαi; 200-330 nM topical to PLA + electroporation, PLA, PV and LAA
  VS induced ERP shortening: significantly attenuated

## cp-Gαi peptide: cell-penetrating Gαi C-terminal peptide (cp-Gαi1/2 or cp-Gαi3), isoform not specified at the place (IKNNLKDCGLF; also: cell-penetrating sequence attached, not shown)
[4]
  enhancement of cell viability: ~8%
Gαi; [5]
  VS-induced ERP shortening in the LAA: Elimination
  VS-induced ERP shortening in the PLA: eliminated
Gαi; after peptide application
  ERP heterogeneity (coefficient of variation of all ERPs in PLA): no change
Gαi; after peptide delivery to PLA
  AF inducibility in the presence of VS: significantly decreased
Gαi; compared to vagal stimulation at baseline
  reduction in AF inducibility during VS: 69%
Gαi; [6]
  AF episodes >5 seconds in duration induced: 10 episodes
  AF inducibility index: 0.05
Gαi; with or without sono/electroporation
  atrial or ventricular arrhythmias induced by peptide injection: No atrial or ventricular arrhythmias were induced
